# Laboratory results taken from ChEMBL document CHEMBL1201862, “PubChem BioAssay data set” (2004).
#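 These data come from cells grown in 96-well plates and exposed to compound for 48 hours at five concentrations. GI50: concentration for 50% inhibition of growth.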 Calls of active or inactive are those of the source. No stated cut-off is given here; in the data, active = GI50 up to about 1.1 µM and inactive = higher.
# Tests used:
# Test in all cases: NCI tumour cell line growth inhibition, 48 h
# A498 = test system: A498
# CAKI-1 = test system: CAKI-1
# HCC 2998 = test system: HCC 2998
# HCT-15 = test system: HCT-15
# HOP-92 = test system: HOP-92
# HT-29 = test system: HT-29
# K562 = test system: K562
# LOX IMVI = test system: LOX IMVI
# NCI-H226 = test system: NCI-H226
# OVCAR-3 = test system: OVCAR-3
# RPMI-8226 = test system: RPMI-8226
# RXF 393 = test system: RXF 393
# SK-MEL-28 = test system: SK-MEL-28
# SK-MEL-5 = test system: SK-MEL-5
# SN12C = test system: SN12C
# SNB-75 = test system: SNB-75
# U-251 = test system: U-251
# DU-145 = test system: DU-145
# MCF7 = test system: MCF7
# MDA-MB-231 = test system: MDA-MB-231
Structure (SMILES),GI50 (A498),GI50 (CAKI-1),GI50 (HCC 2998),GI50 (HCT-15),GI50 (HOP-92),GI50 (HT-29),GI50 (K562),GI50 (LOX IMVI),GI50 (NCI-H226),GI50 (OVCAR-3),GI50 (RPMI-8226),GI50 (RXF 393),GI50 (SK-MEL-28),GI50 (SK-MEL-5),GI50 (SN12C),GI50 (SNB-75),GI50 (U-251),GI50 (DU-145),GI50 (MCF7),GI50 (MDA-MB-231)
O=C(CCC(=O)Nc1ccc(Cl)c(Cl)c1)CC(=O)c1ccc2ccccc2c1,> 100 µM (inactive),83 µM (inactive),> 100 µM (inactive),39.8 µM,> 100 µM (inactive),93.8 µM (inactive),17.1 µM (inactive),> 100 µM (inactive),> 100 µM (inactive),> 100 µM (inactive),39.8 µM (inactive),> 100 µM (inactive),> 100 µM (inactive),> 100 µM (inactive),> 100 µM (inactive),26.3 µM (inactive),> 100 µM (inactive),,,
O=C1Nc2ccccc2/C1=N/Nc1nc(-c2ccccc2)cs1,,18.3 µM (inactive),52.5 µM (inactive),23.1 µM,35.7 µM (inactive),27.7 µM (inactive),,44.6 µM (inactive),> 100 µM (inactive),26.4 µM (inactive),,,36.1 µM (inactive),25.8 µM (inactive),27.1 µM (inactive),8.63 µM (inactive),24.2 µM (inactive),35.5 µM (inactive),27.2 µM (inactive),28.3 µM (inactive)
Cc1cn(C2CC(O)C(Cn3nncc3Cn3cnc4c(N)ncnc43)O2)c(=O)[nH]c1=O (stereo not given),> 100 µM (inactive),> 100 µM (inactive),> 100 µM (inactive),> 100 µM,> 100 µM (inactive),,,> 100 µM (inactive),> 100 µM (inactive),> 100 µM (inactive),> 100 µM (inactive),> 100 µM (inactive),> 100 µM (inactive),> 100 µM (inactive),> 100 µM (inactive),58.3 µM (inactive),> 100 µM (inactive),> 100 µM (inactive),> 100 µM (inactive),
COC(=O)C(=O)C(C(=O)C(=O)Nc1ccc([N+](=O)[O-])cc1[N+](=O)[O-])c1nc2ccc([N+](=O)[O-])cc2nc1O (stereo not given),76.9 µM (inactive),> 100 µM (inactive),> 100 µM (inactive),> 100 µM,> 100 µM (inactive),> 100 µM (inactive),> 100 µM (inactive),> 100 µM (inactive),> 100 µM (inactive),> 100 µM (inactive),> 100 µM (inactive),43.3 µM (inactive),,,> 100 µM (inactive),14.6 µM (inactive),> 100 µM (inactive),,,
N#Cc1sc2c(c1O)c(=O)n(-c1ccccc1)c(=S)n2-c1ccccc1,,,> 100 µM (inactive),> 100 µM,> 100 µM (inactive),> 100 µM (inactive),89.1 µM (inactive),> 100 µM (inactive),> 100 µM (inactive),> 100 µM (inactive),> 100 µM (inactive),> 100 µM (inactive),> 100 µM (inactive),> 100 µM (inactive),> 100 µM (inactive),> 100 µM (inactive),> 100 µM (inactive),> 100 µM (inactive),> 100 µM (inactive),> 100 µM (inactive)
O=Cc1cc2c(cc1-c1cc3c(cc1C=O)OCO3)OCO2,> 100 µM (inactive),66.2 µM (inactive),> 100 µM (inactive),70.3 µM,> 100 µM (inactive),90.2 µM (inactive),30.8 µM (inactive),23.3 µM (inactive),> 100 µM (inactive),55.6 µM (inactive),30.3 µM (inactive),37.3 µM (inactive),95.1 µM (inactive),> 100 µM (inactive),> 100 µM (inactive),> 100 µM (inactive),> 100 µM (inactive),,,
Cc1cc(C#N)c(Nc2ccc(F)cc2[N+](=O)[O-])s1,> 100 µM (inactive),84.9 µM (inactive),> 100 µM (inactive),> 100 µM,33.4 µM (inactive),,> 100 µM (inactive),,> 100 µM (inactive),> 100 µM (inactive),> 100 µM (inactive),20.2 µM (inactive),> 100 µM (inactive),,> 100 µM (inactive),21.3 µM (inactive),26.8 µM (inactive),> 100 µM (inactive),,21.5 µM (inactive)
Fc1cccc(Cl)c1C1SCc2nc3ccccc3n21 (stereo not given),83.2 µM (inactive),27.1 µM (inactive),31.7 µM (inactive),31.3 µM,6.62 µM (inactive),25.5 µM (inactive),25.8 µM (inactive),17.3 µM (inactive),36.6 µM (inactive),21.9 µM (inactive),17.1 µM (inactive),31.6 µM (inactive),,15.4 µM (inactive),41.4 µM (inactive),38.5 µM (inactive),27.2 µM (inactive),,,
COC1OC(CO)C(O)C(OC(=O)c2cc(O)c(O)c(O)c2)C1OC(=O)c1cc(O)c(O)c(O)c1 (stereo not given),,48.3 µM (inactive),,66.2 µM,,65 µM (inactive),35.6 µM (inactive),23.3 µM (inactive),> 100 µM (inactive),> 100 µM (inactive),> 100 µM (inactive),> 100 µM (inactive),> 100 µM (inactive),36.7 µM (inactive),61.9 µM (inactive),> 100 µM (inactive),> 100 µM (inactive),> 100 µM (inactive),> 100 µM (inactive),> 100 µM (inactive)
O=c1c2cn[nH]c2nc2scc(-c3ccc(Cl)cc3)n12,,> 100 µM (inactive),> 100 µM (inactive),> 100 µM,,> 100 µM (inactive),> 100 µM (inactive),> 100 µM (inactive),> 100 µM (inactive),> 100 µM (inactive),> 100 µM (inactive),> 100 µM (inactive),> 100 µM (inactive),> 100 µM (inactive),> 100 µM (inactive),16.9 µM (inactive),> 100 µM (inactive),,> 100 µM (inactive),> 100 µM (inactive)
Nc1ncnc2c(C3OC(CO)C(O)C3O)n[nH]c12 (stereo not given),0.484 µM (active),,0.0375 µM (active),,0.0513 µM (active),0.0895 µM (active),0.0741 µM (active),0.0647 µM (active),,,0.159 µM (active),0.201 µM (active),,1.41 µM (inactive),0.0652 µM (active),0.196 µM (active),2.53 µM (inactive),,0.0698 µM (active),
C[C@]12CCc3nonc3C1CC[C@@H]1C2CC[C@]2(C)C(=O)CCC12 (stereo not given in full),22.9 µM (inactive),14.8 µM (inactive),26.5 µM (inactive),31.2 µM,20 µM (inactive),17.2 µM (inactive),33.7 µM (inactive),21.5 µM (inactive),76.9 µM (inactive),25.5 µM (inactive),17.5 µM (inactive),35.2 µM (inactive),> 10 µM (inactive),17.5 µM (inactive),35.1 µM (inactive),28.8 µM (inactive),48.6 µM (inactive),,,
NC(CCCNc1ccc(O)cc1)C(=O)O (stereo not given),41.3 µM (inactive),48.2 µM (inactive),40.6 µM (inactive),30.1 µM,26.5 µM (inactive),41.7 µM (inactive),35.4 µM (inactive),18.5 µM (inactive),> 100 µM (inactive),18.1 µM (inactive),24.4 µM (inactive),26.1 µM (inactive),42.6 µM (inactive),25.8 µM (inactive),> 47.5 µM (inactive),42.5 µM (inactive),> 100 µM (inactive),,,
CCOP(=O)(OCC)C(c1ccc(F)cc1)N(C(=O)NC(F)(F)F)c1ccc(F)cc1 (stereo not given),,> 100 µM (inactive),> 100 µM (inactive),> 100 µM,,> 100 µM (inactive),> 100 µM (inactive),> 100 µM (inactive),> 100 µM (inactive),> 100 µM (inactive),> 100 µM (inactive),> 100 µM (inactive),> 100 µM (inactive),> 100 µM (inactive),> 100 µM (inactive),> 100 µM (inactive),> 100 µM (inactive),> 100 µM (inactive),> 100 µM (inactive),> 100 µM (inactive)
COc1ccc(/C=C\c2cc(OC)c(OC)c(OC)c2)c(O)c1O [COMBRETASTATIN A-1],,0.238 µM (active),0.166 µM (active),,0.112 µM (active),7.03 µM (inactive),0.05 µM (active),0.119 µM (active),,,0.0757 µM (active),,5.41 µM (inactive),0.05 µM (active),0.256 µM (active),1.31 µM (inactive),0.0759 µM (active),0.0127 µM (active),< 0.01 µM (active),0.0148 µM (active)
COc1cc(OC)c2c(O)cc(CC(C)O)cc2c1 (stereo not given),> 100 µM (inactive),> 100 µM (inactive),> 100 µM (inactive),> 100 µM,> 100 µM (inactive),92.5 µM (inactive),> 100 µM (inactive),> 100 µM (inactive),,> 100 µM (inactive),> 100 µM (inactive),> 100 µM (inactive),> 100 µM (inactive),> 100 µM (inactive),> 100 µM (inactive),> 100 µM (inactive),91.4 µM (inactive),,,
COc1ccc2c(C)cc(N/N=C/c3ccc(OC)c4ccccc34)nc2c1,,13.4 µM (inactive),,10.1 µM,11.2 µM (inactive),7.82 µM (inactive),10.1 µM (inactive),3.71 µM (inactive),12.9 µM (inactive),2.96 µM (inactive),2.78 µM (inactive),16.7 µM (inactive),16.1 µM (inactive),16.4 µM (inactive),2.13 µM (inactive),22.9 µM (inactive),3.66 µM (inactive),4.36 µM (inactive),19.4 µM (inactive),4.91 µM (inactive)
